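Results reflect a 48-hour exposure of cells in 96-well plates to compound at five concentrations. At the GI50, growth is halved.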 Active and inactive are the calls of the source. No stated cut-off is given here; in the data, active = GI50 up to about 1.1 µM and inactive = higher.
Tests used:
Assay in all cases: NCI tumour cell line growth inhibition, 48 h
UO-31 = tested on: UO-31
K562 = tested on: K562
OVCAR-8 = tested on: OVCAR-8
OVCAR-3 = tested on: OVCAR-3
MOLT-4 = tested on: MOLT-4
CCRF-CEM = tested on: CCRF-CEM
NCI-H23 = tested on: NCI-H23
SF-268 = tested on: SF-268
U-251 = tested on: U-251
DU-145 = tested on: DU-145
UACC-257 = tested on: UACC-257
HCT-116 = tested on: HCT-116
NCI-H522 = tested on: NCI-H522
EKVX = tested on: EKVX
SK-MEL-2 = tested on: SK-MEL-2
M14 = tested on: M14
HCC 2998 = tested on: HCC 2998
HOP-92 = tested on: HOP-92
MDA-N = tested on: MDA-N
CAKI-1 = tested on: CAKI-1

Measured: GI50

Nc1ccc2c(c1)CN1C(=O)c3ccccc3C1=N2 [DANIQUIDONE]
inactive: UO-31 27.3 µM | K562 67.5 µM | OVCAR-8 22 µM | OVCAR-3 40.9 µM | MOLT-4 3.77 µM | CCRF-CEM 10.7 µM | NCI-H23 69 µM | SF-268 29 µM | U-251 27.7 µM | DU-145 27.4 µM | UACC-257 96.6 µM | HCT-116 16.7 µM | NCI-H522 45.3 µM | EKVX 51.3 µM | SK-MEL-2 > 79.8 µM | M14 104 µM | HCC 2998 63 µM | HOP-92 36.9 µM | MDA-N 49.4 µM | CAKI-1 41.4 µM

CCOC(=O)C(NC(=O)c1cccc(Cl)c1)(N1CCN(c2cc3c(cc2F)c(=O)c(C(=O)O)cn3CC)CC1)C(F)(F)F (stereo not given)
inactive: UO-31 19.2 µM | K562 5.73 µM | OVCAR-8 16.6 µM | OVCAR-3 14.8 µM | MOLT-4 3.85 µM | CCRF-CEM 2.61 µM | NCI-H23 18 µM | SF-268 14.1 µM | U-251 6.7 µM | DU-145 25.4 µM | UACC-257 27.4 µM | HCT-116 14 µM | NCI-H522 4.17 µM | EKVX 17.1 µM | SK-MEL-2 13.5 µM | M14 16.8 µM | HCC 2998 12.6 µM | HOP-92 13.8 µM | MDA-N 14.9 µM | CAKI-1 23.7 µM

OCCNC1c2cc(Cl)ccc2-c2c(Cl)cc(Cl)cc21 (stereo not given)
inactive: UO-31 3.37 µM | K562 33 µM | OVCAR-8 28.6 µM | OVCAR-3 29.8 µM | MOLT-4 22.1 µM | CCRF-CEM 23.2 µM | NCI-H23 39.2 µM | SF-268 38.5 µM | U-251 26.3 µM | DU-145 > 100 µM | UACC-257 31.3 µM | HCT-116 26.5 µM | NCI-H522 27.8 µM | EKVX 11.6 µM | SK-MEL-2 15.2 µM | M14 38.1 µM | HCC 2998 35.1 µM | HOP-92 20.3 µM | MDA-N 26.9 µM | CAKI-1 30.3 µM
